Patent publication US12686690B2, “Macrocyclic urea orexin receptor agonists” (Merck Sharp & Dohme LLC, priority 2020, dated 2026)

Target: T1, hOX2R (Homo sapiens, UniProt O43614)
T1 construct: expressed in transfected cells; host or cells: CHO cells (G418 selection)
T1 sequence (O43614 1-444): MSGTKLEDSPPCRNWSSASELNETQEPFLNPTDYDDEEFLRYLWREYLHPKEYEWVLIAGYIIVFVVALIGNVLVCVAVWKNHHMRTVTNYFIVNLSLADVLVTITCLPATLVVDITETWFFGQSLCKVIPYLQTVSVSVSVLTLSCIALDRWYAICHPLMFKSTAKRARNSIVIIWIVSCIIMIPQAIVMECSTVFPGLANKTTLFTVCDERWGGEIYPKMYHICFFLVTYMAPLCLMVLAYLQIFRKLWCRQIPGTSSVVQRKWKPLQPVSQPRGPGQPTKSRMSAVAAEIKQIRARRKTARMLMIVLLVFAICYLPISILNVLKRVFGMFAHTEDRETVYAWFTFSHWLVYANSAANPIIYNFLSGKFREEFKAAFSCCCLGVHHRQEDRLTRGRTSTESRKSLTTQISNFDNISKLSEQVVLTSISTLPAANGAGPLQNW
Experiment: hOX2R IPone assay (orexin receptor agonism)
Type: cell-based
Conditions: IPone readout; for hOX2R_Ipone max %act: maximal activation; for EC50: orexin receptor agonist, read-out: hOX2R_IPone EC50

| hOX2R_Ipone max %act | EC50 | SMILES |
| --- | --- | --- |
| 100.8% | 167 nM | CCN1C(=O)N[C@@H](CCC(F)(F)F)CCCCCOc2nc(cn3ccnc23)-c2nc(ncc2C)[C@@H]1C [Example 93A, (12S,16R)-13-ethyl-8,12-dimethyl-16-(3,3,3-trifluoro-propyl)-12,13,16,17, 18,19,20,21-octa-hydro-6,23:11,7-di(azeno)imidazo[2,1-c][1,4,10,13,15]oxatet-raazacyclohenicosin-14(15H)-one] |
| 100.2% | 1.41 nM | CCN1Cc2cnc(OC)c(c2)-c2nc(c3nccn3n2)OCCCCC[C@H](CCC(C)(F)F)NC1=O [Example 125, (R,E)-7-(3,3-difluorobutyl)-4-ethyl-22-methoxy-13-oxa-4,6-diaza-1(2,4)-imidazo[2,1-f][1,2,4]triazina-2(3,5)-pyridinacyclotridecaphan-5-one] |
| 100.6% | 5.8 nM | CCN1C(=O)N[C@@H](CCC(F)(F)F)CCCCCOc2nc(nn3ccnc23)-c2cccc(c2)[C@H]1C [Example 87, (12R,16R)-13-ethyl-12-methyl-16-(3,3,3-trifluoropropyl)-12,13,16,17,18,19,20, 21-octahydro-6,23-(azeno)-11,7-(metheno)imidazo[2,1-c][1,4,5,13,15] oxatetraazacycloheni-cosin-14(15H)-one] |
| 98.9% | 370 nM | CCN1C(=O)N[C@@H](CCC(F)(F)F)CCCCCOc2cc(cc3ccnn23)-c2nc(cnc2OC)C1C (single isomer, unassigned) [Example 80A] |
| 99.2% | 6.4 nM | CCN1C(=O)N[C@@H](CCC(F)(F)F)CCCCCOc2cc(nn3ccnc23)-c2cc(cnc2OC)[C@H]1C [Example 89, (12R,16R)-13-ethyl-8-methoxy-12-methyl-16-(3,3,3-trifluoropropyl)-12,13,16,17,18,19,20, 21-octahydro-6,23:11,7-di(metheno) imidazo[2,1-c][1,4,5,9,13,15]oxapentaaza-cyclohenicosin-14(15H)-one] |
| 102.4% | 3.69 nM | CCN1C(=O)N[C@@H](CCC(F)(F)F)CCCCCOc2nc(cn3ncnc23)-c2nc(ncc2OC)[C@H]1C [Example 147, (3R,7R,E)-4-ethyl-25-methoxy-3-methyl-7-(3,3,3-trifluoropropyl)-13-oxa-4,6-diaza-1(6,8)-[1,2,4]triazolo[1,5-a]pyrazina-2(4,2)-pyrimidinacyclotridecaphan-5-one] |
| 95.9% | 48.8 nM | CCN1C(=O)N[C@@H](CC(F)(F)F)CCCCCOc2nc(nn3ccnc23)-c2cc(cnc2OC)[C@H]1C [Example 99, (12R,16R)-13-ethyl-8-methoxy-12-methyl-16-(2,2,2-trifluoroethyl)-12,13,16,17,18,19,20, 21-octahydro-6,23-(azeno)-11,7-(metheno)imidazo[2,1-c][1,4,5,9,13,15] oxapentaazacycloheni-cosin-14(15H)-one] |
| 102.7% | 3.5 nM | CCC(CC)CC1CCCCCOc2nc(cn3ccnc23)-c2cc(ncc2OC)[C@@H](C)N(CC)C(=O)N1 (single isomer, unassigned) [Example 64A] |
| 99.7% | 2.6 nM | CCN1C(=O)N[C@@H](CCC(F)(F)F)CCCCCOc2nc(cn3ccnc23)-c2cc(cc(C)n2)[C@H]1C [Example 118B, (12R,16R)-13-ethyl-9,12-dimethyl-16-(3,3,3-trifluoropropyl)-12,13,16,17,18,19,20,21-octahydro-6,23-(azeno)-11,7-(metheno)imidazo[2,1-c][1,4,8,13,15]oxatetraazacyclohenicosin-14(15H)-one] |
| 93.8% | 9.06 nM | CCN1C(=O)N[C@@H](CCC(F)(F)F)COCCCOc2nc(cn3ncnc23)-c2ccnc(c2F)[C@H]1C (single isomer, unassigned) [Example 175] |
| 102.4% | 1.5 nM | CCN1C(=O)N[C@@H](CCC(F)(F)F)CCCCCCOc2nc(cn3ccnc23)-c2cc(ncc2OC)[C@H]1C [Example 109, (3R,7R,E)-4-ethyl-25-methoxy-3-methyl-7-(3,3,3-trifluoropropyl)-14-oxa-4,6-diaza-1(6,8)-imidazo[1,2-a]pyrazina-2(4,2)-pyridinacyclotetra-decaphan-5-one] |
| 101.4% | 0.84 nM | CCN1C(=O)NC(C2CC(F)(F)C2)CCCCCOc2nc(cn3ccnc23)-c2cc(ncc2OC)[C@H]1C (stereo partly drawn) [Example 195, (3R,E)-7-(3,3-difluorocyclobutyl)-4-ethyl-25-methoxy-3-methyl-13-oxa-4,6-diaza-1(6,8)-imidazo[1,2-a]pyrazina-2(4,2)-pyridinacyclotri-decaphan-5-one] |
| 60.9% | 4910 nM | CCN1C(=O)N[C@@H](CCC(F)(F)F)CCCCCOc2nc(cn3ccnc23)C2=NC=C(O2)C1C (single isomer, unassigned) [Example 104A] |
| 99.5% | 0.6 nM | CCN1Cc2cnc(OC)c(c2)-c2cn3ccnc3c(n2)OCCCCC[C@H](CCC(F)(F)F)NC1=O [Example 51] |
| 100.9% | 3.3 nM | CCN1C(=O)N[C@@H](CCC(F)(F)F)CCCCCOc2nc(cn3ccnc23)-c2cc(ccn2)[C@H]1C [Example 113B, (12R,16R)-13-ethyl-12-methyl-16-(3,3,3-trifluoropropyl)-12,13,16,17,18,19,20,21-octahydro-6,23-(azeno)-11,7-(metheno)imidazo[2,1-c][1,4,8,13,15]oxatetraazacyclohenicosin-14(15H)-one] |
| 102% | 1.48 nM | CCN1C(=O)NC(CC(O)C(F)(F)F)CCCCCOc2cn3ncnc3c(n2)-c2cc(ncc2OC)C1C [Example 130, (3R,7R,E)-4-ethyl-25-methoxy-3-methyl-7-((R)-3,3,3-trifluoro-2-hydroxypropyl)-13-oxa-4,6-diaza-1(6,8)-[1,2,4]triazolo[1,5-a]pyrazina-2(4,2)-pyridinacyclotridecaphan-5-one] |
| 107.8% | 2.2 nM | CCN1C(=O)N[C@@H](CCC(C)(F)F)COCCCOc2nc(cn3ncnc23)-c2cc(ncc2C)[C@H]1C [Example 153, (3R,7S,E)-7-(3,3-difluorobutyl)-4-ethyl-25,3-dimethyl-9,13-dioxa-4,6-diaza-1(6,8)-[1,2,4]triazolo[1,5-a]pyrazina-2(4,2)-pyridinacyclotridecaphan-5-one] |
| 101% | 1 nM | CCN1C(=O)NC(CCOC)CCCCCOc2nc(cn3ccnc23)-c2cc(ncc2OC)[C@H]1C (single isomer, unassigned) [Example 56B] |
| 100.6% | 1.8 nM | CCN1C(=O)N[C@@H](CCC(F)(F)F)CCCCCOc2nc(cn3ccnc23)-c2nc(ncc2C)[C@H]1C [Example 93B, (12R,16R)-13-ethyl-8,12-dimethyl-16-(3,3,3-trifluoro-propyl)-12,13,16,17, 18,19,20,21-octa-hydro-6,23:11,7-di(azeno)imidazo[2,1-c][1,4,10,13,15]oxatet-raazacyclohenicosin-14(15H)-one] |
| 100.3% | 11.9 nM | CCN1C(=O)N[C@@H](CCC(F)(F)F)CCCCCOc2cc(cn3ccnc23)-c2cc(ncn2)C1C (single isomer, unassigned) [Example 96A] |
| 101.9% | 1 nM | CCN1C(=O)NC(CC2CCCC2)CCCCCOc2nc(cn3ccnc23)-c2cc(ncc2OC)[C@H]1C (single isomer, unassigned) [Example 65B] |
| 100.8% | 8.24 nM | CCN1C(=O)N[C@@H](CCC(F)(F)F)CCOCCOc2nc(cn3ncnc23)-c2c(OC)cnc(c2F)C1C (stereo partly drawn) [Example 179, (7S,E)-4-ethyl-23-fluoro-25-methoxy-3-methyl-7-(3,3,3-trifluoropropyl)-10,13-dioxa-4,6-diaza-1(6,8)-[1,2, 4]triazolo[1,5-a]pyrazina-2(4,2)-pyridinacyclotridecaphan-5-one] |
| 96.6% | 250 nM | CCN1C(=O)NCC(C(F)(F)F)N(C)CCOc2nc(cn3ccnc23)-c2cccc(c2)[C@H]1C (single isomer, unassigned) [Example 25A] |
| 101.2% | 1.2 nM | CCN1C(=O)N[C@@H](CCC(F)(F)F)CCCCOc2nc(cn3ccnc23)-c2cc(ncc2OC)C1C (stereo in doubt) [Example 40, (12S,16R)-13-ethyl-8-methoxy-12-methyl-16-(3,3,3-trifluoropropyl)-12,13,15,16,17,18,19,20-octahydro-14H-6,22-(azeno)-11,7-(metheno)imidazo[2,1-c][1,4,10,13,15]oxatetra-azacycloicosin-14-one] |
| 94.4% | 6.6 nM | CCN1C(=O)NC(c2cscn2)CCCCCOc2nc(cn3ccnc23)-c2cccc(c2)[C@H]1C (single isomer, unassigned) [Example 19B] |
| 100.9% | 0.9 nM | CCN1C(=O)NC(CC2CC2(F)F)CCCCCOc2nc(cn3ccnc23)-c2cc(ncc2OC)[C@H]1C (single isomer, unassigned) [Example 59D] |

| SMILES | hOX2R_Ipone max %act | EC50 |
| --- | --- | --- |
| CCN1C(=O)NCCOCCOc2nc(cn3ccnc23)-c2cccc(c2)[C@H]1C [Example 2, (12R)-13-ethyl-12-methyl-12,13,16,17,19,20-hexahydro-6,22-(azeno)-11,7-(metheno)imidazo[1,2-o][1,18,4,6,15]dioxatriaza-cycloicosin-14(15H)-one] | 64.8% | 813 nM |
